What all share (type): functional
One experiment concerns UO-31. Briefly: Growth inhibition of Homo sapiens (human) UO31 cells at 10 uM after 48 hr by coulter counter analysis. The settings on record: UO-31, 48 h, read-out: GI.
The test system of a further experiment is MCF7. Briefly: Growth inhibition of Homo sapiens (human) MCF7 cells at 10 uM after 48 hr by coulter counter analysis. The settings on record: MCF7, 48 h, read-out: GI.
Another experiment relates to Pseudomonas aeruginosa. The experiment in a line: Antibacterial activity against Pseudomonas aeruginosa assessed as growth inhibition after 24 hr by two-fold serial dilution method.
The next experiment deals with Bacillus subtilis. Briefly: Antibacterial activity against Bacillus subtilis assessed as growth inhibition after 24 hr by two fold serial dilution method.
For the next experiment, the system named is SNB-75. Briefly: Growth inhibition of Homo sapiens (human) SNB75 cells at 10 uM after 48 hr by coulter counter analysis. The following applies: SNB-75, 48 h, read-out: GI.
The test system of another experiment is Staphylococcus aureus. The experiment in a line: Antibacterial activity against Staphylococcus aureus assessed as growth inhibition after 24 hr by two fold serial dilution method. The following applies: for MIC: Staphylococcus aureus, 24 h.
In the next experiment the test system is HOP-92. Briefly: Growth inhibition of Homo sapiens (human) HOP92 cells at 10 uM after 48 hr by coulter counter analysis. The settings on record: HOP-92, 48 h, read-out: GI.
Another experiment relates to NCI-H522. The experiment in a line: Growth inhibition of Homo sapiens (human) NCI-H522 cells at 10 uM after 48 hr by coulter counter analysis. The settings on record: NCI-H522, 48 h, read-out: GI.
A further experiment relates to SN12C. Briefly: Growth inhibition of Homo sapiens (human) SN12C cells at 10 uM after 48 hr by coulter counter analysis. The settings on record: read-out: GI.
Another experiment deals with Escherichia coli. Briefly: Antibacterial activity against Escherichia coli assessed as growth inhibition after 24 hr by two-fold serial dilution method. The settings on record: for MIC: Escherichia coli, 24 h.

Structures are written as SMILES. Values after ≈ are worked out from the molar mass of the structure shown.

As usually defined, the MIC is the least concentration at which growth counts as inhibited. `COc1cc(N2C(=O)c3nccnc3C2=O)cc(OC)c1OC`: the inhibition of growth at 10 µM in the experiment with UO-31 is 12.5%; with MCF7, 4.31%; in the experiment with SNB-75, -2.75%; in the experiment on HOP-92, 10.2%; in the experiment on NCI-H522, 4.82%; in the experiment on SN12C it was 5.86%. The minimum inhibitory concentration (MIC) was over 100 µg/mL in the experiment with Pseudomonas aeruginosa, 9 µg/mL (≈ 28.5 µM) in the experiment with Bacillus subtilis, 8.7 µg/mL (≈ 27.6 µM) with Staphylococcus aureus and 9 µg/mL (≈ 28.5 µM) in the experiment on Escherichia coli. Also, the “-logMIC” value stood at 4.56 in the experiment on Staphylococcus aureus and 4.54 with Escherichia coli.
`O=C1c2nccnc2C(=O)N1c1ccc([N+](=O)[O-])cc1[N+](=O)[O-]`: the inhibition of growth at 10 µM is 15.3% with UO-31; 3.56% with MCF7; 11.4% in the experiment on SNB-75; -28.1% with HOP-92; 3.89% with NCI-H522; 6.83% with SN12C. Moreover, the minimum inhibitory concentration (MIC) with Pseudomonas aeruginosa is over 100 µg/mL; in the experiment with Bacillus subtilis, 8 µg/mL (≈ 25.4 µM); with Staphylococcus aureus, 8.4 µg/mL (≈ 26.6 µM); in the experiment with Escherichia coli it was 10.9 µg/mL (≈ 34.6 µM). In addition, the “-logMIC” value in the experiment with Staphylococcus aureus was found to be 4.57; in the experiment with Escherichia coli it was 4.46.
For `COc1cc(OC)c(N2C(=O)c3cccc4cccc(c34)C2=O)c(OC)c1`, the inhibition of growth at 10 µM in the experiment with UO-31 stood at 21%; in the experiment with MCF7, 6.42%; in the experiment on SNB-75, 13.2%; with HOP-92, 30.2%; in the experiment on NCI-H522 it was 13.6%; with SN12C it was 19.3%. Besides, the minimal inhibitory concentration (MIC) in the experiment with Pseudomonas aeruginosa is over 100 µg/mL; in the experiment with Bacillus subtilis it was 2.2 µg/mL (≈ 6.05 µM); in the experiment on Staphylococcus aureus, 2 µg/mL (≈ 5.5 µM); in the experiment with Escherichia coli it was 2.5 µg/mL (≈ 6.88 µM). Further, the “-logMIC” value in the experiment on Staphylococcus aureus was found to be 5.26; with Escherichia coli, 5.16.

The values above are taken from ChEMBL document CHEMBL3046429, “Synthesis, molecular modeling study, preliminary antibacterial, and antitumor evaluation of N-substituted naphthalimides and their structural analogues” (2013).
